This is an account of results in PMC5516028, “Molecular tools for GABAA receptors: High affinity ligands for β1-containing subtypes” (Scientific Reports, 2017).

The target of one test is α3β2γ2 GABAA receptors. Further details: method as in earlier work. The note with it: published data, ref 1 (Supplementary References), read-out: Approximate EC50; cited from earlier work.
For the next test, the target named is T1, α1β3 GABAA receptors (Rattus norvegicus, UniProt P62813+P63079).
T1 construct: expressed in transfected cells; host or cells: Xenopus laevis oocytes, mRNA injected
T1 sequence (P62813 28-455): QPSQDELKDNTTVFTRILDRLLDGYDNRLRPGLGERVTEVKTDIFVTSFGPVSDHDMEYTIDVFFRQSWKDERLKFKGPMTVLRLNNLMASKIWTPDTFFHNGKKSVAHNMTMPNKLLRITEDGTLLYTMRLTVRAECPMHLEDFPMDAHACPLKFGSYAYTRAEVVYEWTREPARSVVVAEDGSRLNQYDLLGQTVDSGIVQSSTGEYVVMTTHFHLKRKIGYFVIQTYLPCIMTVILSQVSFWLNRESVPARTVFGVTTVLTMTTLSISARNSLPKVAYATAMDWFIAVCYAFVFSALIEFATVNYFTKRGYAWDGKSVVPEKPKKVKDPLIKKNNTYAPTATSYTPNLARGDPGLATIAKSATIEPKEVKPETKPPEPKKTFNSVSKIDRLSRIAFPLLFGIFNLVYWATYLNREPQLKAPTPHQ
T1 sequence (P63079 26-473): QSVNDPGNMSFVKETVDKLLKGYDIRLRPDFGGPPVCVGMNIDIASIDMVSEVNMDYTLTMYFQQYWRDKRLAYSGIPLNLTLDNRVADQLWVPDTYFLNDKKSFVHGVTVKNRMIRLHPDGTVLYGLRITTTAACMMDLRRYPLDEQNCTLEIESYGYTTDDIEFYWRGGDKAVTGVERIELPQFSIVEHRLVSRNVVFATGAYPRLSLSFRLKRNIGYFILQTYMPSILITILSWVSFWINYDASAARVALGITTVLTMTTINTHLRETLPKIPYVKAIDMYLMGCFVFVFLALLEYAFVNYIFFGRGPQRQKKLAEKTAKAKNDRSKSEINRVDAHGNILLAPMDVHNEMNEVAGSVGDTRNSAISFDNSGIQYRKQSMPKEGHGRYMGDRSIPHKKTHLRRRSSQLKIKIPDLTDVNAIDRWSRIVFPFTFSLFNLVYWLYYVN
Further details: method as in earlier work. Particulars: published data, ref 1 (Supplementary References), read-out: Approximate EC50; cited from earlier work.

The target in another test is T2, α5β3γ2 GABAA receptors (Rattus norvegicus, UniProt P19969+P63079).
T2 construct: expressed in transfected cells; host or cells: Xenopus laevis oocytes, mRNA injected
T2 sequence (P19969 32-464 limits assumed): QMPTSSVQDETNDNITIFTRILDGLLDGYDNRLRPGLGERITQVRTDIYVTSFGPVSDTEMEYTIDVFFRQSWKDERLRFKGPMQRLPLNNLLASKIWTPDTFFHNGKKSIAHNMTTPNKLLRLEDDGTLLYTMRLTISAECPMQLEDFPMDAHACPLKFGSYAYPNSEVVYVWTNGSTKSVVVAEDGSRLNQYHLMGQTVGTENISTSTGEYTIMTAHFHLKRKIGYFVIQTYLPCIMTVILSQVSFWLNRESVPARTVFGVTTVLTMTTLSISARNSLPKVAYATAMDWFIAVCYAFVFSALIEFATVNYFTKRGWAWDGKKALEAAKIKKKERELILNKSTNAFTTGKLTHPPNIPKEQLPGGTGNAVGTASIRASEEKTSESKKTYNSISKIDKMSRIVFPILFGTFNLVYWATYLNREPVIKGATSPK
T2 sequence (P63079 26-473): as the sequence (P63079 26-473) above
T2 sequence (P18508 39-466 partner): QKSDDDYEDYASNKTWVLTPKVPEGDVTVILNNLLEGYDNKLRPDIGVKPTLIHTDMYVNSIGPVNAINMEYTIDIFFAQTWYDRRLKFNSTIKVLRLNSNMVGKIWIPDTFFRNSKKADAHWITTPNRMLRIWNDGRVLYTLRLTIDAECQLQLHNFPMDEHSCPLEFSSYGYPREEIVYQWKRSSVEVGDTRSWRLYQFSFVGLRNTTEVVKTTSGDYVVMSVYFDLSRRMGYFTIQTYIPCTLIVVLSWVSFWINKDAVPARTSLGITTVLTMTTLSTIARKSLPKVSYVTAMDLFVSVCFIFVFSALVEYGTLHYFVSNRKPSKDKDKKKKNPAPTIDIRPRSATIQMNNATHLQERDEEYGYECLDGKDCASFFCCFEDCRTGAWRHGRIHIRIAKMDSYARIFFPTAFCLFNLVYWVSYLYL
Further details: method as in earlier work. Particulars: published data, ref 1 (Supplementary References), read-out: Approximate EC50; cited from earlier work.

A further test has as its target T3, α5β3 GABAA receptors (Rattus norvegicus, UniProt P19969+P63079).
T3 construct: expressed in transfected cells; host or cells: Xenopus laevis oocytes, mRNA injected
Further details: method as in earlier work. Particulars: published data, ref 1 (Supplementary References), read-out: Approximate EC50; cited from earlier work.

Another test concerns the target α5β2γ2 GABAA receptors. More on the design: method as in earlier work. The note with it: published data, ref 1 (Supplementary References), read-out: Approximate EC50; cited from earlier work.
Another test concerns the target T4, α4β3γ2 GABAA receptors (Rattus norvegicus, UniProt P28471+P63079).
T4 construct: expressed in transfected cells; host or cells: Xenopus laevis oocytes, mRNA injected
Further details: method as in earlier work. Particulars: published data, ref 1 (Supplementary References), read-out: Approximate EC50; cited from earlier work.

A further test deals with T5, α1β3γ2 GABAA receptors (Rattus norvegicus, UniProt P62813+P63079).
T5 construct: expressed in transfected cells; host or cells: Xenopus laevis oocytes, mRNA injected
T5 sequence (P62813 28-455): as the sequence (P62813 28-455) above
T5 sequence (P63079 26-473): as the sequence (P63079 26-473) above
T5 sequence (P18508 39-466 partner): as the sequence (P18508 39-466 partner) above
More on the design: method as in earlier work. The note with it: published data, ref 1 (Supplementary References), read-out: Approximate EC50; cited from earlier work.

In the next test the target is T6, α2β3 GABAA receptors (Rattus norvegicus, UniProt P23576+P63079).
T6 construct: expressed in transfected cells; host or cells: Xenopus laevis oocytes, mRNA injected
T6 sequence (P23576 29-451): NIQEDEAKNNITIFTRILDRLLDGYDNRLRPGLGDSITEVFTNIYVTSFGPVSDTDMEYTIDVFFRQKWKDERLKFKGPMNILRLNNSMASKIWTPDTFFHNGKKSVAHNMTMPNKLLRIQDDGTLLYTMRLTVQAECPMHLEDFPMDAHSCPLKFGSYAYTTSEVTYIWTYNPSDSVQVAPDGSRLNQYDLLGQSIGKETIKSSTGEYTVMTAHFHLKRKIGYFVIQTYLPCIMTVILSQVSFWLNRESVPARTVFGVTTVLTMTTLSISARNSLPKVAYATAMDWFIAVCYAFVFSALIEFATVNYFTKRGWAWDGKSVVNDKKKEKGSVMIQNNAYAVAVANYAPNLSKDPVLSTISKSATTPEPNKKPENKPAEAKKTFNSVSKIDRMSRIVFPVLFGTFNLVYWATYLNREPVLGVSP
T6 sequence (P63079 26-473): as the sequence (P63079 26-473) above
More on the design: method as in earlier work. Particulars: published data, ref 1 (Supplementary References), read-out: Approximate EC50; cited from earlier work.

Another test addresses α2β2γ2 GABAA receptors. Further details: method as in earlier work. The note with it: published data, ref 1 (Supplementary References), read-out: Approximate EC50; cited from earlier work.
In a further test the target is T7, α2β3γ2 GABAA receptors (Rattus norvegicus, UniProt P23576+P63079).
T7 construct: expressed in transfected cells; host or cells: Xenopus laevis oocytes, mRNA injected
T7 sequence (P23576 29-451): as the sequence (P23576 29-451) above
T7 sequence (P63079 26-473): as the sequence (P63079 26-473) above
T7 sequence (P18508 39-466 partner): as the sequence (P18508 39-466 partner) above
Further details: method as in earlier work. Particulars: published data, ref 1 (Supplementary References), read-out: Approximate EC50; cited from earlier work.

The target of the next test is α5β1γ2 GABAA receptors. Further details: method as in earlier work. Particulars: published data, ref 1 (Supplementary References), read-out: Approximate EC50; cited from earlier work.
A further test addresses T8, α1β1δ GABAA receptors (Rattus norvegicus, UniProt P15431+P62813).
T8 construct: expressed in transfected cells; host or cells: Xenopus laevis oocytes, mRNA injected
As to the kind of experiment: Two electrode voltage clamp in Xenopus laevis oocytes, α1β1δ. It is filed as cell-based. The note with it: α1β1δ. The text has this:
cDNA’s of rat GABAA receptor subunits α1, α4, β1, β2, β3 and γ2S were cloned as described. cDNAs of the rat subunits α2, α3 and α5 were gifts from P. Malherbe, that of α6 and γ1 were gifts of P. Seeburg and that of δ was a gift of C. Czajkowski. The mutants were constructed using the Q5 Site-Directed Mutagenesis Kit (New England Biolabs) following manufacturer’s instruction. We used the wild-type rat β3-pCI vector as template and the primers […] and […] resulting in a substitution of amino acid N41 (AAC) to R (AGG). We used the wild-type rat β1-pCI vector as template and the primers […] and […] resulting in a substitution of amino acid R41 (CGG) to N (AAC). The mutated subunits were confirmed by sequencing.
In vitro transcription of mRNA was based on the cDNA expression vectors encoding for rat GABAA receptor subunits α1–6, β1-3, γ1,2, δ and the two β mutants (β1R41N and β3N41R)[40]. After linearizing the cDNA vectors with appropriate restriction endonucleases, the cDNA was purified and concentrated with the DNA Clean and Contentrator ^TM Kit (Zymoresearch, Catalog No. D4005). Capped transcripts of the purified cDNA were produced using the mMESSAGE mMACHINE® T7 transcription kit (Ambion, TX, USA) and polyadenylated using the Ambion PolyA tailing kit (Ambion). After transcription and polyadenylation the RNA was purified with the MEGAclear ^TM Kit (Ambion, Catalog No. AM1908). The final RNA concentration was measured on NanoDrop® ND-1000 and finally diluted and stored in diethylpyrocarbonate-treated water at −80 °C. For the microinjection, the RNA of αβ receptor combinations was mixed at 1:1 ratio (which leads to αβ receptors that consist of predominantly 3 beta and 2 alpha subunits[27]), for αkβlγm (k = 1–3, l = 1, 3, m = 1, 2) receptors at 1:1:5 ratio, for αkβ3γ2 (k = 4–6) and αkβlδ (k = 1, 4 and 6, l = 1, 3) receptor combinations at 3:1:5 ratio.
Mature female Xenopus laevis (Nasco, WI) were anesthetized in a bath of ice-cold 0.17% Tricain (Ethyl-m-aminobenzoate, Sigma, MO) before decapitation in full accordance with all rules of the Austrian animal protection law (see http://www.ris.bka.gv.at/Dokumente/BgblAuth/BGBLA_2012_I_114/BGBLA_2012_I_114.pdf) and the Austrian animal experiment by-laws (see https://www.ris.bka.gv.at/Dokumente/BgblAuth/BGBLA_2012_II_522/BGBLA_2012_II_522.pdf) which implement the European Directive 2010/63/EU (see http://eur-lex.europa.eu/LexUriServ/LexUriServ.do?uri=OJ:L:2010:276:0033:0079:en:PDF) into the Austrian law (all information accessed on July 27, 2016). The frog’s ovaries were transferred to ND96 medium (96 mM NaCl, 2 mM KCl, 1 mM MgCl2, 5 mM HEPES; pH 7.5). Stage 5–6 oocytes with the follicle cell layer around them were roughly dissected with forceps into packages of 10–15 cells and washed in Ca^2+-free ND96 medium. Cells were then digested with collagenase (type IA, Sigma, NO, 1 mg/mL ND96) at 18 °C shaking at 30 rpm for 30–60 minutes and gently defolliculated with the aid of a glass pipette with appropriate tip diameter and a platinum loop. Defolliculated cells were stored at 18 °C for at least 6 hours in ND96 solution containing penicillin G (10000 IU/100 mL) and streptomycin (10 mg/100 mL) in order to preselect and exclude damaged cells from further treatment. Healthy defolliculated oocytes were injected with an aqueous solution of mRNA. A total of 4.5 ng of mRNA per oocyte was injected with a Nanoject II (Drummond). After injection of mRNA, oocytes were incubated at 18 °C (ND96 + antibiotic) for 2–3 days for αβ receptors and for 3–4 days for αβγ or αβδ receptors before recording. When cells were measured at later time points, oocytes were stored at +4 °C instead of 18 °C.
For electrophysiological recordings, oocytes were placed on a nylon-grid in a bath of Ca^2+-containing NDE solution medium [96 mM NaCl, 5 mM HEPES-NaOH (pH 7.5), 2 mM KCl, 1 mM MgCl2, 1.8 mM CaCl2].
For orientation: In two-electrode clamp one electrode senses voltage and the other passes current.

For a further test, the target named is α1β1γ2 GABAA receptors. Further details: method as in earlier work. Particulars: published data, ref 1 (Supplementary References), read-out: Approximate EC50; cited from earlier work.

Like-named read-outs stand apart in the source and are kept apart here.

T8 sequence (P62813 28-455): as the sequence (P62813 28-455) above
T8 sequence (P15431 26-474): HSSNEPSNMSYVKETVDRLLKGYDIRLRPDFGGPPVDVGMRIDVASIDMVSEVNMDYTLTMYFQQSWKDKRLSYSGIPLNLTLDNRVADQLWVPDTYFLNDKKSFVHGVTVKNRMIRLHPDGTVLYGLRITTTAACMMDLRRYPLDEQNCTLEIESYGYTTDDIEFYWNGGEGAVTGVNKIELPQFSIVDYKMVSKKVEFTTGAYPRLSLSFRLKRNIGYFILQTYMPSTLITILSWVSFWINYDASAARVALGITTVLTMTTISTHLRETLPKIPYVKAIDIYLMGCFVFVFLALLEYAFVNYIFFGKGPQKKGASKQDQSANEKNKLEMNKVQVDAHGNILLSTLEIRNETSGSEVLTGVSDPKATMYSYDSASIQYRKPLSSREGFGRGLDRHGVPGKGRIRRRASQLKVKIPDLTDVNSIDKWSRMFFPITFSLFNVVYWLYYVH
T8 sequence (P18506 17-449 partner limits assumed): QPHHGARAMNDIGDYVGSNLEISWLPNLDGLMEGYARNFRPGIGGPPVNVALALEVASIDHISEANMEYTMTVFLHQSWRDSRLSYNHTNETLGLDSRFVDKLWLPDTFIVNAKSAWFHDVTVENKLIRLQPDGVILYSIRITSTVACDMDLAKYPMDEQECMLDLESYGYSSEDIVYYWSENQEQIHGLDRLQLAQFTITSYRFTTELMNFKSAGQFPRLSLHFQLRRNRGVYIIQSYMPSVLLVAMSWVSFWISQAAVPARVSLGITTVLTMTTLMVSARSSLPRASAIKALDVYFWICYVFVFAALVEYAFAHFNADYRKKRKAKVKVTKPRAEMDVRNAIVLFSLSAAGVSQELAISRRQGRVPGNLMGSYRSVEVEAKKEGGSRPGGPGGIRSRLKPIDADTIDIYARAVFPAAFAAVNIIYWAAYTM
T3 sequence (P19969 32-464 limits assumed): as the sequence (P19969 32-464 limits assumed) above
T3 sequence (P63079 26-473): as the sequence (P63079 26-473) above
T4 sequence (P28471 36-552): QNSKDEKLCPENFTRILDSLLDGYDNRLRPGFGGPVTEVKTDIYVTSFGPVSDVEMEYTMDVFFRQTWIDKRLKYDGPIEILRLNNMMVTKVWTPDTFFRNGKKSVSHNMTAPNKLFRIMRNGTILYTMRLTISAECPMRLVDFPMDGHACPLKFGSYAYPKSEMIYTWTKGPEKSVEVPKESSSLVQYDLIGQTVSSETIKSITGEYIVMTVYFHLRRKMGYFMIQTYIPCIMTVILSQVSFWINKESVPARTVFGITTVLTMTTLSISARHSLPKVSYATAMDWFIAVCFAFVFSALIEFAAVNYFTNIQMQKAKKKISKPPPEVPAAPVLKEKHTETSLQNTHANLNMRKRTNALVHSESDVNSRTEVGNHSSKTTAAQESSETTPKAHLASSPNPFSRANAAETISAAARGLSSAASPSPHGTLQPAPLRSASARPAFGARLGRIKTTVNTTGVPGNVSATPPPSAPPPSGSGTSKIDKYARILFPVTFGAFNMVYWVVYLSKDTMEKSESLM
T4 sequence (P63079 26-473): as the sequence (P63079 26-473) above
T4 sequence (P18508 39-466 partner): as the sequence (P18508 39-466 partner) above

For `COc1ccc(-n2nc3c4cc(Cl)ccc4[nH]cc-3c2=O)cc1` [Compound 1, 8-Chloro-2-(4-methoxyphenyl)-2H-pyrazolo[4,3-c]quinolin-3(5H)-one], the EC50 on α3β2γ2 GABAA receptors is ~2.1 µM; at α1β3 GABAA receptors, ~1.6 µM; at α5β3γ2 GABAA receptors, ~0.6 µM; at α5β3 GABAA receptors, ~0.6 µM; at α5β2γ2 GABAA receptors, ~3 µM; on α4β3γ2 GABAA receptors, ~0.9 µM. The EC50 at α1β3γ2 GABAA receptors is ~1.8 µM; on α2β3 GABAA receptors it was ~3 µM; at α2β2γ2 GABAA receptors it was ~3.5 µM; at α2β3γ2 GABAA receptors, ~2.2 µM; at α5β1γ2 GABAA receptors, ~0.05 µM; on α1β1δ GABAA receptors (co-applied with GABA EC3-5, read-out: EC50), 0.07 µM. For the same compound, the EC50 is 0.1 µM at α1β1δ GABAA receptors (log of EC50, sign as printed, read-out: LogEC50 (converted)) and ~0.1 µM on α1β1γ2 GABAA receptors. Moreover, on α1β1δ GABAA receptors (read-out: efficacy, % of control current (GABA EC3-5 = 100%), 10 nM), the activity at 0.01 µM was 126 ± 5.6%. The activity at 0.03 µM on α1β1δ GABAA receptors (read-out: efficacy, % of control current (GABA EC3-5 = 100%), 30 nM) is 192 ± 21.1%. Further, on α1β1δ GABAA receptors (read-out: efficacy, % of control current (GABA EC3-5 = 100%), 10 µM), the activity at 10 µM was determined as 294 ± 11.1%. At α1β1δ GABAA receptors, the “Hill slope (nH)” value came to 0.8±0.2.
